Data from US20260201006A1, “COACERVATE FORMULATIONS OF CXCR-ACTIVATING PEPTIDES FOR CONTROLLED RELEASE IN OPHTHALMIC AND TOPICAL TREATMENTS” (University of Pittsburgh - Of the Commonwealth System of …, priority 2022, published 2026).
Ends that are not written are not given here.

Columns and labels:
[1] = test system: environmental dry eye model; assay: Schirmer tear test (STT) in rabbit environmental dry eye model; format: in vivo, New Zealand white rabbits; conditions: rabbits, 21 days treatment
Description: The 22-mer CXCL10p peptide (OH-[…]-NH2; SEQ ID NO: 5) was manufactured by PolyPeptide Inc. (San Diego, CA, USA) and purified to >95% purity as a lyophilized powder. The peptide was delivered in three different formulations. For subconjunctival injection, 3 μg of the peptide was dissolved in 100 μl of sterile PBS for weekly injections. For eye drops, 10 μg of the peptide was dissolved in 50 μl of sterile PBS for twice daily drops (BID). For the slow-release formulation, 10 μg of the peptide was dissolved in 50 μl of coacervate for BID inoculation. The control was 50 μl of sterile PBS applied BID. The coacervate is a heparin and PEAD (1:3.6) mixture with each component at a 10 mg/mL concentration in water. The CXCL10p peptide was added at a 1:10 dilution in PBS to the final concentration.
The environmental dry eye model was used to test the CXCL10p peptide. Female New Zealand white rabbits (8 per group) were used at 125-175 days old (weighing 3-5 kg) at the time of induction. For induction of dry eye, all animals were dosed with atropine sulfate (1%) in both eyes (OU) twice daily (BID) for 2-3 weeks prior to test article administration to induce KCS. In addition, humidity in the animals' housing room was maintained at ~20% throughout the study to promote eye dryness. Non-responder animals were removed from the study at the end of the induction phase. […]

[2] = test system: TNFα mRNA in human conjunctival epithelial (HCjE) cells; assay: TNFα-mediated inflammation in HCjE cells (qRT-PCR); format: cell-based
Description: Primary human conjunctival epithelial (HCjE) cells were seeded at 40,000 cells per well in a 96 well flat bottom plate. After overnight adhesion in Keratinocyte-Serum Free Media (cK-SFM), the cells were washed and exposed to starvation media (SFM) for a further 24 hours. At this time the cells were exposed to TNFα (5 ng/ml) in the presence or absence of CXCL10p peptide (200 ng/ml). After 4 hours, the cells were harvested and tested for TNFα mRNA levels with GAPDH mRNA as the control for equalization.

HCjE cells = assay: Goblet cell study: PAS staining of stratified HCjE cells; format: cell-based, human; conditions: 200 ng/ml or 2000 ng/ml, compared to vehicle-treated HCjE cells
Description: (§1) HCjE cells were maintained in complete keratinocyte serum free medium (KSFM; Invitrogen, Carlsbad, CA) in petri dishes coated with type 1 collagen. When the HCjE cells reached 50% confluence, the culture medium was replaced with growth medium (1:1 DMEM/F12:complete KSFM). When cells reached 100% confluence, the cells were fed with stratification medium (DMEM/F12+10% FBS) with or without the CXCL10p peptide (either 200 ng/ml or 2000 ng/ml). Control cells were fed with the medium supplemented with an equivalent volume of the vehicle (PBS) in which the peptide was dissolved. This medium with or without peptide was replaced every other day for 14 days, after which the cells were either stained with periodic acid-Schiff's (PAS) reagent following the standard protocol, or subjected to total RNA isolation, and qRT-PCR for MUC5AC transcripts with TATA-box binding protein (TBP) as the endogenous control.
To further examine the effects of the CXCR3 activating peptide on goblet cell functioning in vitro, stratified HCjE cells are treated with 200 ng/ml CXCR3 activating peptide, 2000 ng/ml CXCR3 activating peptide, or vehicle. Cells are then stained with periodic acid-Schiff's (PAS) reagent.

MUC5AC transcripts = assay: Goblet cell study: qRT-PCR for MUC5AC transcripts in HCjE cells; format: cell-based, human; conditions: 200 ng/ml or 2000 ng/ml, relative to vehicle only
Description: as §1
Control and CXCR3 activating peptide-treated HCjE cells are also examined for expression of MUC5AC transcripts by qRT-PCR.

Substance: OH-PESKAIKNLLKAVHKEMSKRSP-NH2 [CXCL10p peptide]
- amount of aqueous tear (STT) [1]: uncorrected
- reduction of TNFα mRNA levels ([2]; HCjE cells, TNFα 5 ng/ml, peptide 200 ng/ml, 4 hours): approximately one quarter
- TNFα mRNA levels ([2]; HCjE challenged with TNFα, concurrent exposure to peptide): dampened the TNFα mRNA levels in a reproducible and statistically significant manner
- frequency of intense magenta stained cell clusters (goblet cell clusters) (HCjE cells): increase in the frequency
- staining with PAS reagent (proteoglycan content) (HCjE cells): more intense staining with PAS reagent
- levels of MUC5AC transcripts (MUC5AC transcripts): increased levels of MUC5AC transcripts
